Legend:
[1] = system: insects and mites (Acarina); assay: Insecticidal and acaricidal activity (statement in words); format: in vivo; conditions: sucking and biting insects and mites (Acarina)
[2] = system: warm-blooded animals; assay: Toxicity to warm-blooded animals (statement in words); format: in vivo; conditions: as compared to prior art compounds of analogous structure and same type of action
[3] = Toxicity test/peroral (LD50, evaluation after 7 days); conditions: rat, in vivo, po
Description: Test animal: Albino rat (Rattus norvegicus)
Dosing was effected volumetrically after weighing the test animals. A steel knob-ended probe was used for oral administration.

[4] = system: insects; conditions: known from U.S. Pat. No. 3,607,991; cited from earlier work

Q: Which results are given for `CCCSP(=S)(OCC)Oc1ccc(C#N)cc1Br` (stereo not shown) [I, O-ethyl-S-n-propyl-O-(2-bromo-4-cyanophenyl)-thionothiol-phosphoric acid ester]?
A: insecticidal and acaricidal activity [1]: good insecticidal and acaricidal activity; toxicity to warm-blooded animals [2]: very low toxicity; LD50 at 168 h [3]: 100 to 250 mg/kg

Q: For `CCOP(=S)(OCC)Oc1ccc(C#N)cc1` [Compound A, O,O-diethyl-O-(4-cyanophenyl)-thionophosphoric acid ester], which insecticidal activity [4] is on record?
A: The insecticidal activity was “possess insecticidal activity”.

Reference: US3966850A, “O-ethyl-S-n-propyl-O-(2-bromo-4-cyanophenyl)-thionothiol-phosphoric acid ester” (priority 1973, dated 1976)
